Measurements: patent US7109339B2, “Substituted tricyclic gamma-carbolines as serotonin receptor agonists and antagonists” (Bristol-Myers Squibb Company, priority 2002, dated 2006)

melting point [°C] | Compound
140 to 144 | COc1cc2c(c(C(F)(F)F)c1)N[C@H]1CCNC[C@@H]21
74 to 78 | CC(C)(C)OC(=O)N1CC[C@H]2[C@@H](C1)c1cc(Br)cc(C#N)c1N2C(=O)OC(C)(C)C
76 to 80 | COc1ncc(C)cc1Nc1cc(C#N)c2c(c1)[C@@H]1CNCC[C@@H]1N2C [Example 169, (4aS,9bR)-8-(2-methoxy-5-methyl-pyridin-3-ylamino)-5-methyl-2,3,4,4a,5,9b-hexahydro-1H-pyrido[4,3-b]indole-6-carbonitrile]
